Results: paper PMC4129108, “The natural triterpene 3β,6β,16β-trihydroxy-lup-20(29)-ene obtained from the flowers of Combretum leprosum induces apoptosis in MCF-7 breast cancer cells” (BMC Complementary and Alternative Medicine, 2014)
In brackets after ≈: the same amount, converted by molar mass. Entries after “also recorded” stand apart in the source; their conditions may differ.

How the values were obtained:
MCF-7 cells = assay: Apoptosis by flow cytometry (Annexin V-PE/7-AAD); type: cell-based, human; conditions: MCF-7, 24 h
Description: Cells (2 × 10^5 cells/mL) were seeded on 6-well tissue culture plates, and grown for 1 day up to 70–80% confluence before treatment with the test substance. The TTHL was added to medium with FBS to obtain the different concentrations, and cells were treated at 37°C for 24 h in humidified atmosphere containing 5% CO2.
Annexin V-PE was used in conjunction with a vital dye, 7-AAD, to distinguish apoptotic (Annexin V-PE positive, 7-AAD negative) from necrotic (Annexin V-PE positive, 7-AAD positive) cells. After treatment, cells were trypsinized, collected and resuspended in 40 μL of binding buffer with 2 μL Annexin V-PE. Cells were incubated for 15 min in the dark at room temperature. After incubation, 160 μL of binding buffer and 2 μL of 7-AAD were added. Cells were incubated for 5 min and additional 200 μL of binding buffer were added. Before analysis, cells were filtered through a cell strainer cap fitted to a polystyrene round bottom flow cytometric tube. Data were collected and analyzed by a FACS Calibur flow cytometer with CellQuest software, in a total of 10,000 events per sample; fluorescence was measured and the percentage of viable, early apoptotic, late apoptotic and necrotic cells was determined.

[1] = system: S. cerevisiae haploid strain XV185-14c; assay: Point and frameshift mutations and survival in XV185-14c haploid yeast; type: cell-based, Saccharomyces cerevisiae; conditions: for HIS1/10^7 survivors (locus-specific revertants) / HOM3/10^8 survivors (locus-specific revertants, frameshift) / LYS1/10^8 survivors (locus non-specific revertants) / Survival (%): XV185-14c, STAT cells treated in PBS; for Survival (%): 1 h 30°C
Description: Media, solutions and buffers were prepared according to Burke et al.. YPD medium (0.5% yeast extract, 2% peptone, 2% glucose) was used for routine growth. Synthetic medium SC (0.67% yeast nitrogen base, 0.1% ammonium sulfate, 2% glucose) supplemented with the appropriate amino acids and bases ([…]) was used for the detection of mutations.
Stationary phase (STAT) cultures were obtained by inoculation of a single colony into liquid YPD. We chose to work in the stationary phase of growth because this resembles most cells of multicellular organisms in important aspects: (i) most energy comes from mitochondrial respiration; (ii) the cells have left the active cell cycle and have entered the Go phase; and (iii) damage accumulates over time.
Cell cultures were grown as described above, exposed to TTHL in concentrations ranging from 10 to 500 μg/mL, and then incubated in PBS for 1 h at 30°C. Two alleles, his1-798 and lys1-1, were used to detect point mutagenesis. The suppressible ochre nonsense mutant allele lys1-1 can be reverted either by locus-specific sequence alteration (true reversion) or by a forward mutation in a suppressor gene. […] Survival was determined on SC medium (3–5 days, 30°C) and mutation induction (HIS, LYS or HOM revertants) on media lacking the appropriate amino acid (7–10 days, 30°C). Induction of reversion of point mutation to his1-798, ochre allele lys1-1, and frameshift mutation values were scored per number of surviving cells.

[2] = system: HCT116 cell (colorectal carcinoma); assay: XTT cell viability assay, HCT116; type: cell-based, human; conditions: for IC50: Homo sapiens, HCT-116, XTT
Description: The human cell lines MCF-7 (breast adenocarcinoma), HepG2 (hepatoma), T24 (bladder cancer), CACO-2 (colorectal adenocarcinoma) and MRC5 (lung normal fibroblast) were obtained from the Rio de Janeiro Cell Bank (Rio de Janeiro, RJ, Brazil). The HCT116 cell (colorectal carcinoma), and HT29 cell (colorectal adenocarcinoma) were kindly provided by Dr. Annette K. Larsen (Institut National de la Santé et de la Recherche Médicale - INSERM, Paris, França). All cell lines except MCF-7 were grown in DMEM supplemented with 10% or 20% (for CACO-2) FBS, 100 units.mL^-1 penicillin and 100 μg.mL^-1 streptomycin at 37°C in a humidified atmosphere of 5% CO2. MCF-7 cells were maintained in RPMI-1640 supplemented with 20% FBS at the same conditions described above.
The cytotoxic potential of the TTHL was evaluated by the XTT assay in human tumor cell lines as well as in MRC5 normal fibroblasts. Cells (1 × 10^4 cells) were seeded on 96-well plates in growth medium and incubated overnight. Afterwards, TTHL (0.5, 1.0, 2.5, 5.0, and 10 μg/mL) was added to each well and incubated for 24, 48, 72, and 120 h. Mitoxantrone, a cytostatic anthracenedione that intercalates in DNA and increases the incidence of double-strand breaks by stabilizing the cleavable complex of topoisomerase II and DNA, was used as positive control. At the end of each treatment, cell viability was assessed according to the manufacturer’s instructions. Briefly, after discarding the medium, 1 mL of XTT labeling mixture was added to the cells and incubated for 2 h at 37°C. Absorbance was measured with a SpectraMax reader (Bio-Rad, USA) at a test wavelength of 492 nm (A492) and a reference wavelength of 690 nm (A690). The final result corresponds to A492-A690. The absorbance of negative control cells was set as 100% viability, and the values for treated cells were calculated as a percentage of the control.
The IC20, IC50, and IC80 values and their 95% confidence intervals (CI 95%) were obtained by nonlinear regression using GraphPad Prism v5 program (Intuitive Software for Science, San Diego, CA, USA). Selective index (SI) was calculated by IC50 in MRC5 cells/IC50 in tumoral cells. All experiments were independently repeated at least three times, with triplicate samples for each treatment. Results are expressed as means ± standard deviation (SD). Data were analyzed by one-way analysis of variance (ANOVA), and means were compared using Tukey test, with P ≤ 0.05 considered as statistically significant.

Q: How did the “apoptosis induced (% of MCF-7 cells)” value (MCF-7 cells; TTHL at IC50) turn out when `C=C(C)[C@@H]1CC[C@@]2(C)[C@H]1[C@H]1CC[C@@H]3[C@@]4(C)CC[C@H](O)C(C)(C)[C@@H]4[C@H](O)C[C@@]3(C)[C@]1(C)C[C@@H]2O` [TTHL, 3β,6β,16β-trihydroxy-lup-20(29)-ene] was run?
A: 14%

Q: And the “percentage of necrotic cells (labeled with 7-AAD)” value (MCF-7 cells; TTHL at IC50)?
A: less than 5%

Q: And the “cells in early apoptosis (labeled with annexin V-PE)” value (MCF-7 cells; TTHL at IC80)?
A: approximately 55%

Q: And the “cells in late apoptosis (labeled with both annexin V-PE and 7-AAD)” value (MCF-7 cells; TTHL at IC80)?
A: 15%

Q: What about the “percentage of necrotic cells (labeled with 7-AAD)” value (MCF-7 cells; TTHL at IC80) of the same compound?
A: less than 5%

Q: What about the “mutagenicity in yeast strain XV185-14c (in words)” value ([1]; 10 to 500 μg/mL, his1-798, lys1-1, hom3-10 loci) of the same compound?
A: induced mutagenicity; also recorded: only able to induce mutagenesis on the assessed loci at the highest concentration

Q: And the “HIS1/10^7 survivors (locus-specific revertants)” value (from here on “HIS1/10^7 survivors”) ([1]; 10 μg/mL)?
A: 10.77 ± 4.40 /10^7 survivors

Q: What about the “HOM3/10^8 survivors (locus-specific revertants, frameshift)” value ([1]; 10 μg/mL) of the same compound?
A: 6.11 ± 1.58 /10^8 survivors

Q: And the “LYS1/10^8 survivors (locus non-specific revertants)” value ([1]; 10 μg/mL)?
A: 4.78 ± 0.63 /10^8 survivors

Q: What about the “Survival (%)” value ([1]; 10 μg/mL) of the same compound?
A: 84.90%

Q: And the “HIS1/10^7 survivors” value ([1]; 50 μg/mL)?
A: 13.33 ± 1.10 /10^7 survivors

Q: What about the “HOM3/10^8 survivors (locus-specific revertants, frameshift)” value ([1]; 50 μg/mL) of the same compound?
A: 8.80 ± 0.14 /10^8 survivors

Q: What about the “LYS1/10^8 survivors (locus non-specific revertants)” value ([1]; 50 μg/mL) of the same compound?
A: 5.68 ± 2.22 /10^8 survivors

Q: What about the “Survival (%)” value ([1]; 50 μg/mL) of the same compound?
A: 72.83%

Q: And the “HIS1/10^7 survivors” value ([1]; 100 μg/mL)?
A: 20.83 ± 1.80 /10^7 survivors

Q: What about the “HOM3/10^8 survivors (locus-specific revertants, frameshift)” value ([1]; 100 μg/mL) of the same compound?
A: 8.49 ± 2.12 /10^8 survivors

Q: And the “LYS1/10^8 survivors (locus non-specific revertants)” value ([1]; 100 μg/mL)?
A: 9.72 ± 0.55 /10^8 survivors

Q: And the “Survival (%)” value ([1]; 100 μg/mL)?
A: 65.00%

Q: What about the “HIS1/10^7 survivors” value ([1]; 500 μg/mL) of the same compound?
A: 30.10 ± 0.21 /10^7 survivors

Q: And the “HOM3/10^8 survivors (locus-specific revertants, frameshift)” value ([1]; 500 μg/mL)?
A: 11.15 ± 0.92 /10^8 survivors

Q: And the “LYS1/10^8 survivors (locus non-specific revertants)” value ([1]; 500 μg/mL)?
A: 14.40 ± 3.40 /10^8 survivors

Q: What about the “Survival (%)” value ([1]; 500 μg/mL) of the same compound?
A: 69.00%

Q: And the IC50 ([2]; HCT116, 24 h treatment)?
A: 7.05 ± 0.21 µg/mL (≈ 15.4 µM)

Q: And the IC50 ([2]; HCT116, 48 h treatment)?
A: 5.87 ± 0.04 µg/mL (≈ 12.8 µM)

Q: And the IC50 ([2]; HCT116, 72 h treatment)?
A: 5.2 ± 0.28 µg/mL (≈ 11.3 µM)

Q: And the IC50 ([2]; HCT116, 120 h treatment)?
A: 4.5 ± 0.29 µg/mL (≈ 9.81 µM)

Q: And the “Selectivity index (SI)” value ([2]; IC50 in MRC5 cells/IC50 in HCT116, 24 h)?
A: 1 X

Q: And the “Selectivity index (SI)” value ([2]; IC50 in MRC5 cells/IC50 in HCT116, 48 h)?
A: 1 X

Q: And the “Selectivity index (SI)” value ([2]; IC50 in MRC5 cells/IC50 in HCT116, 72 h)?
A: 1 X

Q: And the “Selectivity index (SI)” value ([2]; IC50 in MRC5 cells/IC50 in HCT116, 120 h)?
A: 1.5 X
